*1 amine or outer side, *2 acyl side, *3 side chain or, on linkers, in order; H or OH if unused. Where a SMILES comes first, the peptide text is derived from it. [ ]: non-standard residue; d: D form. The star is where a group is joined. ξ: configuration not given here. Fluorescein(5-NHCS) = O=C1OC2(c3ccc(O)cc3Oc3cc(O)ccc32)c2cc(NC(=S)*)ccc21; X34 = O=C([C@@H]1[C@@H](O/N=C\c2ccc([N+](=O)[O-])o2)CCN1[*:1])[*:2]; X47 = O=C([C@@H]1C[C@@H](O/N=C\c2ccc([N+](=O)[O-])o2)CN1[*:1])[*:2]; X48 = O=C([C@@H]1C[C@@H](O/N=C\c2c(F)c(F)c(F)c(F)c2F)CN1[*:1])[*:2]; X36 = CC(/C=N\O[C@H]1CCN([*:1])[C@@H]1C(=O)[*:2])=C\c1ccccc1; X43 = COc1ccc(/C=N\O[C@H]2CCN([*:1])[C@@H]2C(=O)[*:2])cc1OC; X37 = O=C([C@@H]1C[C@@H](O/N=C\c2ccc(CO)o2)CN1[*:1])[*:2]; X42 = O=C([C@@H]1[C@@H](O/N=C\CCc2ccccc2)CCN1[*:1])[*:2]; X46 = O=C([C@@H]1C[C@H](O/N=C\CCc2ccccc2)CN1[*:1])[*:2]; X41 = CCCCC/C=N\O[C@@H]1C[C@@H](C(=O)[*:2])N([*:1])C1; X44 = O=C([C@@H]1[C@@H](O/N=C\c2ccoc2)CCN1[*:1])[*:2]; X35 = O=C([C@@H]1C[C@H](O/N=C\c2ccoc2)CN1[*:1])[*:2]; ξPip = O=C(O)C1CCCCN1; Ava = NCCCCC(=O)O
Target: T1, Tumor susceptibility gene 101 protein (Homo sapiens, UniProt Q99816)
T1 sequence (Q99816 whole entry): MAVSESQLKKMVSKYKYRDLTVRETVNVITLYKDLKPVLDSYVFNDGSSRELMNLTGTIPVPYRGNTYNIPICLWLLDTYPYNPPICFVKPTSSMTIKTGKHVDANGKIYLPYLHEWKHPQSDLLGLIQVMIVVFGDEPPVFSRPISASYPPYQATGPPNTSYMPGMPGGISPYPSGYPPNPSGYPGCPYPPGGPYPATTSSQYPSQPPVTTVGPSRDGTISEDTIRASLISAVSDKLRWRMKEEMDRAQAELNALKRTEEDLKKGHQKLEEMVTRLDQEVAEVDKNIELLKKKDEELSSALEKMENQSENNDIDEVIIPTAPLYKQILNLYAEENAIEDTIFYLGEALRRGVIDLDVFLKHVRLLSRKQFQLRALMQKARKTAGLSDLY
Test: Binding affinity to Tsg101

SMILES | IC50 [µM]
C[C@H](NC(=O)[C@@H](NC(=O)[C@@H]1CCCN1C(=O)[C@H](CCC(=O)O)NC(=O)[C@@H]1CCCN1C(=O)CCCCNC(=S)Nc1ccc2c(c1)C1(OC2=O)c2ccc(O)cc2Oc2cc(O)ccc21)[C@@H](C)O)C(=O)N1CCCCC1C(=O)N1CC[C@H](O/N=C\c2ccc([N+](=O)[O-])o2)[C@H]1C(=O)N[C@@H](CCC(=O)O)C(=O)N[C@@H](CCC(=O)O)C(N)=O (stereo partly specified) ({Fluorescein(5-NHCS)-Ava}-PEPTA[ξPip][X34]EE-NH2) | 18
CC(/C=N\O[C@H]1CCN(C(=O)C2CCCCN2C(=O)[C@H](C)NC(=O)[C@@H](NC(=O)[C@@H]2CCCN2C(=O)[C@H](CCC(=O)O)NC(=O)[C@@H]2CCCN2C(=O)CCCCNC(=S)Nc2ccc3c(c2)C2(OC3=O)c3ccc(O)cc3Oc3cc(O)ccc32)[C@@H](C)O)[C@@H]1C(=O)N[C@@H](CCC(=O)O)C(=O)N[C@@H](CCC(=O)O)C(N)=O)=C\c1ccccc1 (stereo partly specified) ({Fluorescein(5-NHCS)-Ava}-PEPTA[ξPip][X36]EE-NH2) | 12
C[C@H](NC(=O)[C@@H](NC(=O)[C@@H]1CCCN1C(=O)[C@H](CCC(=O)O)NC(=O)[C@@H]1CCCN1C(=O)CCCCNC(=S)Nc1ccc2c(c1)C1(OC2=O)c2ccc(O)cc2Oc2cc(O)ccc21)[C@@H](C)O)C(=O)N1CCCCC1C(=O)N1C[C@H](O/N=C\c2ccc(CO)o2)C[C@H]1C(=O)N[C@@H](CCC(=O)O)C(=O)N[C@@H](CCC(=O)O)C(N)=O (stereo partly specified) ({Fluorescein(5-NHCS)-Ava}-PEPTA[ξPip][X37]EE-NH2) | 26
C[C@H](NC(=O)[C@@H](NC(=O)[C@@H]1CCCN1C(=O)[C@H](CCC(=O)O)NC(=O)[C@@H]1CCCN1C(=O)CCCCNC(=S)Nc1ccc2c(c1)C1(OC2=O)c2ccc(O)cc2Oc2cc(O)ccc21)[C@@H](C)O)C(=O)N1CCCCC1C(=O)N1CC[C@H](O/N=C\CCc2ccccc2)[C@H]1C(=O)N[C@@H](CCC(=O)O)C(=O)N[C@@H](CCC(=O)O)C(N)=O (stereo partly specified) ({Fluorescein(5-NHCS)-Ava}-PEPTA[ξPip][X42]EE-NH2) | 20
C[C@H](NC(=O)[C@@H](NC(=O)[C@@H]1CCCN1C(=O)[C@H](CCC(=O)O)NC(=O)[C@@H]1CCCN1C(=O)CCCCNC(=S)Nc1ccc2c(c1)C1(OC2=O)c2ccc(O)cc2Oc2cc(O)ccc21)[C@@H](C)O)C(=O)N1CCCCC1C(=O)N1CC[C@H](O/N=C\c2ccoc2)[C@H]1C(=O)N[C@@H](CCC(=O)O)C(=O)N[C@@H](CCC(=O)O)C(N)=O (stereo partly specified) ({Fluorescein(5-NHCS)-Ava}-PEPTA[ξPip][X44]EE-NH2) | 20
C[C@H](NC(=O)[C@@H](NC(=O)[C@@H]1CCCN1C(=O)[C@H](CCC(=O)O)NC(=O)[C@@H]1CCCN1C(=O)CCCCNC(=S)Nc1ccc2c(c1)C1(OC2=O)c2ccc(O)cc2Oc2cc(O)ccc21)[C@@H](C)O)C(=O)N1CCCCC1C(=O)N1C[C@H](O/N=C\c2ccc([N+](=O)[O-])o2)C[C@H]1C(=O)N[C@@H](CCC(=O)O)C(=O)N[C@@H](CCC(=O)O)C(N)=O (stereo partly specified) ({Fluorescein(5-NHCS)-Ava}-PEPTA[ξPip][X47]EE-NH2) | 12

The next lines start with the values.

IC50 [µM] | SMILES
48 | C[C@H](NC(=O)[C@@H](NC(=O)[C@@H]1CCCN1C(=O)[C@H](CCC(=O)O)NC(=O)[C@@H]1CCCN1C(=O)CCCCNC(=S)Nc1ccc2c(c1)C1(OC2=O)c2ccc(O)cc2Oc2cc(O)ccc21)[C@@H](C)O)C(=O)N1CCCCC1C(=O)N1C[C@@H](O/N=C\c2ccoc2)C[C@H]1C(=O)N[C@@H](CCC(=O)O)C(=O)N[C@@H](CCC(=O)O)C(N)=O (stereo partly specified) ({Fluorescein(5-NHCS)-Ava}-PEPTA[ξPip][X35]EE-NH2)
41 | CCCCC/C=N\O[C@@H]1C[C@@H](C(=O)N[C@@H](CCC(=O)O)C(=O)N[C@@H](CCC(=O)O)C(N)=O)N(C(=O)C2CCCCN2C(=O)[C@H](C)NC(=O)[C@@H](NC(=O)[C@@H]2CCCN2C(=O)[C@H](CCC(=O)O)NC(=O)[C@@H]2CCCN2C(=O)CCCCNC(=S)Nc2ccc3c(c2)C2(OC3=O)c3ccc(O)cc3Oc3cc(O)ccc32)[C@@H](C)O)C1 (stereo partly specified) ({Fluorescein(5-NHCS)-Ava}-PEPTA[ξPip][X41]EE-NH2)
22 | COc1ccc(/C=N\O[C@H]2CCN(C(=O)C3CCCCN3C(=O)[C@H](C)NC(=O)[C@@H](NC(=O)[C@@H]3CCCN3C(=O)[C@H](CCC(=O)O)NC(=O)[C@@H]3CCCN3C(=O)CCCCNC(=S)Nc3ccc4c(c3)C3(OC4=O)c4ccc(O)cc4Oc4cc(O)ccc43)[C@@H](C)O)[C@@H]2C(=O)N[C@@H](CCC(=O)O)C(=O)N[C@@H](CCC(=O)O)C(N)=O)cc1OC (stereo partly specified) ({Fluorescein(5-NHCS)-Ava}-PEPTA[ξPip][X43]EE-NH2)
83 | C[C@H](NC(=O)[C@@H](NC(=O)[C@@H]1CCCN1C(=O)[C@H](CCC(=O)O)NC(=O)[C@@H]1CCCN1C(=O)CCCCNC(=S)Nc1ccc2c(c1)C1(OC2=O)c2ccc(O)cc2Oc2cc(O)ccc21)[C@@H](C)O)C(=O)N1CCCCC1C(=O)N1C[C@@H](O/N=C\CCc2ccccc2)C[C@H]1C(=O)N[C@@H](CCC(=O)O)C(=O)N[C@@H](CCC(=O)O)C(N)=O (stereo partly specified) ({Fluorescein(5-NHCS)-Ava}-PEPTA[ξPip][X46]EE-NH2)
32 | C[C@H](NC(=O)[C@@H](NC(=O)[C@@H]1CCCN1C(=O)[C@H](CCC(=O)O)NC(=O)[C@@H]1CCCN1C(=O)CCCCNC(=S)Nc1ccc2c(c1)C1(OC2=O)c2ccc(O)cc2Oc2cc(O)ccc21)[C@@H](C)O)C(=O)N1CCCCC1C(=O)N1C[C@H](O/N=C\c2c(F)c(F)c(F)c(F)c2F)C[C@H]1C(=O)N[C@@H](CCC(=O)O)C(=O)N[C@@H](CCC(=O)O)C(N)=O (stereo partly specified) ({Fluorescein(5-NHCS)-Ava}-PEPTA[ξPip][X48]EE-NH2)
